Biological target: CXCR7 (Homo sapiens (Human), UniProt P25106)
Test: PathHunter CHO-K1 CXCR7 b-arrestin assay (agonistic activity)
Format: cell-based
Settings: PathHunter CHO-K1 CXCR7 b-arrestin cell line
Method in brief: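 CHO-K1 cells co-expressing ProLink-tagged CXCR7 and EA-fused β-arrestin 2 (enzyme fragment complementation); compounds added in HBSS/20 mM HEPES/0.2% BSA after 3–4 h in OPTIMEM, 90 min at 37 °C. Chemiluminescent β-gal signal read after 1 h detection at room temperature; EC50 reported as geometric mean of several measurements.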

CXCR7, sequence (P25106 whole entry): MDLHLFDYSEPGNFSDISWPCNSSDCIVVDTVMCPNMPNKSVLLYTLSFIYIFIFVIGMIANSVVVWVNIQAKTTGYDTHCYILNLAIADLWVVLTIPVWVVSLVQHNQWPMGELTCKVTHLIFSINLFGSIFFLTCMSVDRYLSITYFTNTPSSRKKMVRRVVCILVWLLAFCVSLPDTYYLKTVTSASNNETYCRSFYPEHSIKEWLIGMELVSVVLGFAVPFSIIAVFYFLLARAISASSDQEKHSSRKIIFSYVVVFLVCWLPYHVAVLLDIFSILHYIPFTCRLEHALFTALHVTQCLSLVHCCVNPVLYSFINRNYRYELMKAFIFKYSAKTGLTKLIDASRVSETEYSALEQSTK
CXCR7, sequence (P32121 whole entry partner): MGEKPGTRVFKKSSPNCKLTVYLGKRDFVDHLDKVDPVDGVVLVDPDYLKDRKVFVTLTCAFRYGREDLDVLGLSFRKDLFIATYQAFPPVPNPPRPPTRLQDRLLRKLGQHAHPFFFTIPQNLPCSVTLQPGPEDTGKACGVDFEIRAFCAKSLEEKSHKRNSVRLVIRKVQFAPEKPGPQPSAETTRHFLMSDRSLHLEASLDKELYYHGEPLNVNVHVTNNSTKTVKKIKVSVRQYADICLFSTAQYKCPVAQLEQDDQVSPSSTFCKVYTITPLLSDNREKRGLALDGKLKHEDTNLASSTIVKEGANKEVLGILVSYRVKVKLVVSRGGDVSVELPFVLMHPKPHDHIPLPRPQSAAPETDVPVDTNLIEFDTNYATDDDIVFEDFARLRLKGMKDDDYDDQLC

SMILES	EC50 [nM]
Cc1cc(C)cc(C(=O)Nc2cccc(CN3CCC(C(=O)NC4CCCCC4)CC3)c2)c1 [Example 1.112]	21
Cc1ccc(C(=O)Nc2cccc(CN3CCC(C(=O)NC4CCCCC4)CC3)c2)cc1C [Example 1.113]	7
Cc1c(F)cccc1C(=O)Nc1cccc(CN2CCC(C(=O)NC3CCCCC3)CC2)c1 [Example 1.114]	13
Cc1cc(F)ccc1C(=O)Nc1cccc(CN2CCC(C(=O)NC3CCCCC3)CC2)c1 [Example 1.115]	5
Cc1ccc(F)c(C(=O)Nc2cccc(CN3CCC(C(=O)NC4CCCCC4)CC3)c2)c1 [Example 1.116]	6
Cc1cc(F)cc(C(=O)Nc2cccc(CN3CCC(C(=O)NC4CCCCC4)CC3)c2)c1 [Example 1.117]	4
Cc1cc(C(=O)Nc2cccc(CN3CCC(C(=O)NC4CCCCC4)CC3)c2)ccc1F [Example 1.118]	3
Cc1ccc(C(=O)Nc2cccc(CN3CCC(C(=O)NC4CCCCC4)CC3)c2)c(F)c1 [Example 1.119]	6
Cc1c(Cl)cccc1C(=O)Nc1cccc(CN2CCC(C(=O)NC3CCCCC3)CC2)c1 [Example 1.120]	35
Cc1cc(Cl)ccc1C(=O)Nc1cccc(CN2CCC(C(=O)NC3CCCCC3)CC2)c1 [Example 1.121]	5
COc1ccc(C(=O)Nc2cccc(CN3CCC(C(=O)NC4CCCCC4)CC3)c2)cc1C [Example 1.122]	15
COc1ccc(C(=O)Nc2cccc(CN3CCC(C(=O)NC4CCCCC4)CC3)c2)cc1F [Example 1.123]	4
COc1cc(F)cc(C(=O)Nc2cccc(CN3CCC(C(=O)NC4CCCCC4)CC3)c2)c1 [Example 1.124]	5
COc1cc(OC)cc(C(=O)Nc2cccc(CN3CCC(C(=O)NC4CCCCC4)CC3)c2)c1 [Example 1.125]	10
COc1ccc(C(=O)Nc2cccc(CN3CCC(C(=O)NC4CCCCC4)CC3)c2)cc1OC [Example 1.126]	70
O=C(Nc1cccc(CN2CCC(C(=O)NC3CCCCC3)CC2)c1)c1c(F)cccc1F [Example 1.127]	36
O=C(Nc1cccc(CN2CCC(C(=O)NC3CCCCC3)CC2)c1)c1cccc(F)c1F [Example 1.128]	5
O=C(Nc1cccc(CN2CCC(C(=O)NC3CCCCC3)CC2)c1)c1ccc(F)c(F)c1 [Example 1.129]	2
O=C(Nc1cccc(CN2CCC(C(=O)NC3CCCCC3)CC2)c1)c1ccc(Cl)cc1F [Example 1.130]	7
O=C(Nc1cccc(CN2CCC(C(=O)NC3CCCCC3)CC2)c1)c1cc(F)cc(Cl)c1 [Example 1.131]	4
O=C(Nc1cccc(CN2CCC(C(=O)NC3CCCCC3)CC2)c1)c1ccc(Cl)c(F)c1 [Example 1.132]	10
O=C(Nc1cccc(CN2CCC(C(=O)NC3CCCCC3)CC2)c1)c1ccc(F)cc1Cl [Example 1.133]	7
O=C(Nc1cccc(CN2CCC(C(=O)NC3CCCCC3)CC2)c1)c1ccc(C(F)(F)F)cc1F [Example 1.134]	8
O=C(Nc1cccc(CN2CCC(C(=O)NC3CCCCC3)CC2)c1)c1cc(C(F)(F)F)ccc1F [Example 1.135]	7
O=C(Nc1cccc(CN2CCC(C(=O)NC3CCCCC3)CC2)c1)c1cc(C(F)(F)F)cc(C(F)(F)F)c1 [Example 1.136]	43
O=C(Nc1cccc(CN2CCC(C(=O)NC3CCCCC3)CC2)c1)c1cc(Cl)ccc1Cl [Example 1.137]	8

SMILES	EC50 [nM]
O=C(Nc1cccc(CN2CCC(C(=O)NC3CCCCC3)CC2)c1)c1ccc(Cl)cc1Cl [Example 1.138]	6
O=C(Nc1cccc(CN2CCC(C(=O)NC3CCCCC3)CC2)c1)c1cc(Cl)cc(Cl)c1 [Example 1.139]	22
O=C(Nc1cccc(CN2CCC(C(=O)NC3CCCCC3)CC2)c1)c1ccc(Cl)c(Cl)c1 [Example 1.140]	5
O=C(Nc1cccc(CN2CCC(C(=O)NC3CCCCC3)CC2)c1)c1cnccn1 [Example 1.141]	2
Cc1cnc(C(=O)Nc2cccc(CN3CCC(C(=O)NC4CCCCC4)CC3)c2)cn1 [Example 1.142]	2
O=C(Nc1cccc(CN2CCC(C(=O)NC3CCCCC3)CC2)c1)c1ccc(Cl)c2c1CCO2 [Example 1.143]	5
CN(C)c1cccc(C(=O)Nc2cccc(CN3CCC(C(=O)NC4CCCCC4)CC3)c2)c1 [Example 1.144]	73
O=C(Nc1cccc(CN2CCC(C(=O)NC3CCCCC3)CC2)c1)c1c(F)cccc1C(F)(F)F [Example 1.145]	425
O=C(Nc1cccc(CN2CCC(C(=O)NC3CCCCC3)CC2)c1)c1cc2cccnc2[nH]1 [Example 1.146]	8
O=C(Nc1cccc(CN2CCC(C(=O)NC3CCCCC3)CC2)c1)c1cncc(C2CC2)c1 [Example 1.147]	5
O=C(Nc1cccc(CN2CCC(C(=O)NC3CCCCC3)CC2)c1)c1ccc(CCF)cc1 [Example 1.148]	5
O=C(Nc1cccc(CN2CCC(C(=O)NC3CCCCC3)CC2)c1)C1CC1 [Example 1.149]	81
O=C(Nc1cccc(CN2CCC(C(=O)NC3CCCCC3)CC2)c1)C1CCC1 [Example 1.150]	25
O=C(Nc1cccc(CN2CCC(C(=O)NC3CCCCC3)CC2)c1)C1CCCCC1 [Example 1.151]	10
O=C(Nc1cccc(CN2CCC(C(=O)NC3CCCCC3)CC2)c1)C1CCCCCC1 [Example 1.152]	10
O=C(Nc1cccc(CN2CCC(C(=O)NC3CCCCC3)CC2)c1)c1ccc(C(F)(F)C(F)(F)F)cc1 [Example 1.153]	10
CCc1cncc(C(=O)Nc2cccc(CN3CCC(C(=O)NC4CCCCC4)CC3)c2)c1 [Example 1.154]	2
O=C(Nc1cccc(CN2CCC(C(=O)NC3CCCCC3)CC2)c1)c1cc(C(F)(F)F)ccn1 [Example 1.155]	12
O=C(Nc1cccc(CN2CCC(C(=O)NC3CCCCC3)CC2)c1)c1ccc(F)cc1 [Example 1.156]	2
O=C(Nc1cc(CN2CCC(C(=O)NC3CCCCC3)CC2)ccc1Cl)c1ccncn1 [Example 1.157]	2
Cc1ccc(C(=O)Nc2cc(CN3CCC(C(=O)NC4CCCCC4)CC3)ccc2Cl)s1 [Example 1.158]	14
COc1ccc(C(=O)Nc2cc(CN3CCC(C(=O)NC4CCCCC4)CC3)ccc2Cl)cc1 [Example 1.159]	14
O=C(Nc1cc(CN2CCC(C(=O)NC3CCCCC3)CC2)ccc1Cl)c1ccc(Cl)cc1 [Example 1.160]	5
O=C(Nc1cccc(CN2CCC(C(=O)NC3CCCCC3)CC2)c1Cl)c1ccc(Cl)cc1 [Example 1.162]	2780
Cc1ccc(C(=O)Nc2cccc(CN3CCC(C(=O)NC4CCCCC4)CC3)c2Cl)s1 [Example 1.163]	386
CC(c1cccc(NC(=O)c2ccc(Cl)cc2)c1)N1CCC(C(=O)NC2CCCCC2)CC1 (stereo not shown) [Example 1.164]	8

SMILES	EC50 [nM]
CC(c1cccc(NC(=O)c2ccccc2)c1)N1CCC(C(=O)NC2CCCCC2)CC1 (stereo not shown) [Example 1.165]	23
CC(c1cccc(NC(=O)c2ccc(F)cc2)c1)N1CCC(C(=O)NC2CCCCC2)CC1 (stereo not shown) [Example 1.166]	10
COc1ccc(C(=O)Nc2cccc(C(C)N3CCC(C(=O)NC4CCCCC4)CC3)c2)cc1 (stereo not shown) [Example 1.167]	25
O=C(Nc1cccc(CN2CCC(C(=O)NC3CC3)CC2)c1)c1ccc(F)cc1 [Example 1.199]	3
O=C(Nc1cccc(CN2CCC(C(=O)NC3CC3)CC2)c1)c1cc(Cl)ccn1 [Example 1.200]	16
Cc1cccc(C(=O)Nc2cccc(CN3CCC(C(=O)NC4CC4)CC3)c2)n1 [Example 1.201]	3
Cc1cc(C(=O)Nc2cccc(CN3CCC(C(=O)NC4CC4)CC3)c2)ccn1 [Example 1.203]	56
O=C(Nc1cccc(CN2CCC(C(=O)NC3CC3)CC2)c1)c1cncc(F)c1 [Example 1.204]	47
O=C(Nc1cccc(CN2CCC(C(=O)NC3CC3)CC2)c1)c1ccc(F)cn1 [Example 1.205]	2
O=C(Nc1cccc(CN2CCC(C(=O)NC3CCCC3)CC2)c1)c1ccc(F)cc1 [Example 1.206]	0.9
O=C(Nc1cccc(CN2CCC(C(=O)NC3CCCC3)CC2)c1)c1ccc(F)cn1 [Example 1.207]	0.8
O=C(Nc1cccc(CN2CCC(C(=O)NC3CCCC3)CC2)c1)c1cccc(C(F)(F)F)n1 [Example 1.208]	0.6
O=C(Nc1cccc(CN2CCC(C(=O)NC3CCCC3)CC2)c1)c1cncc(Cl)c1 [Example 1.209]	1
O=C(Nc1cccc(CN2CCC(C(=O)NC3CCCC3)CC2)c1)c1ccc(C(F)(F)F)cn1 [Example 1.210]	0.6
O=C(Nc1cccc(CN2CCC(C(=O)NC3CCCC3)CC2)c1)c1cnc2ccccc2c1 [Example 1.211]	3
O=C(Nc1cccc(CN2CCC(C(=O)NC3CCCC3)CC2)c1)c1cncc(C(F)(F)F)c1 [Example 1.212]	2
O=C(Nc1cccc(CN2CCC(C(=O)NC3CCCC3)CC2)c1)c1ccc2ncccc2c1 [Example 1.213]	3
O=C(Nc1cccc(CN2CCC(C(=O)NC3CCCC3)CC2)c1)c1cccnc1C(F)(F)F [Example 1.214]	109
O=C(Nc1cccc(CN2CCC(C(=O)NC3CCCC3)CC2)c1)c1cncc(F)c1 [Example 1.215]	2
O=C(Nc1cccc(CN2CCC(C(=O)NC3CCCC3)CC2)c1)c1cc(C(F)(F)F)ccn1 [Example 1.216]	7
O=C(Nc1ccc(Cl)c(CN2CCC(C(=O)NC3CCCC3)CC2)c1)c1ccccc1 [Example 1.217]	0.4
O=C(Nc1ccc(Cl)c(CN2CCC(C(=O)NC3CCCC3)CC2)c1)c1cccc(C(F)(F)F)n1 [Example 1.218]	2
O=C(Nc1ccc(Cl)c(CN2CCC(C(=O)NC3CCCC3)CC2)c1)c1ccc(F)cc1 [Example 1.219]	0.9
O=C(Nc1ccc(Cl)c(CN2CCC(C(=O)NC3CCCC3)CC2)c1)c1ccc(C(F)(F)F)cn1 [Example 1.220]	1
